US7572439B2, “Enzyme disruption of bacterial biofilms” (priority 2002, dated 2009)
Marks after values point to notes of the source that are not given here.

Assays:
S. epidermidis biofilms = test: Disruption of S. epidermidis biofilms on glass chamber slide; format: cell-based; set-up: dose or concentration left out as unconfirmed
Text: Three S. epidermidis strains with various capacities for glycocalyx (slime) production were examined including, S. epidermidis strain Hay (a low slime producer), S. epidermidis strain SEI 175 (a moderate slime producer) and S. epidermidis ATCC 35984 (a high slime producer). All three of these S. epidermidis strains produced biofilms on a glass chamber slide (FIG. 9) with ATCC 35984 producing the thickest and most darkly staining biofilm as expected. […] S. aureus strain SA113 was included in this experiment as a control. […] The stained material visible in lysostaphin treated wells is extracellular glycocalyx which stained pink by safranin and contained no intact gram positive S. epidermidis cells, only cellular debris.

S. aureus [1] = test: Killing of bacteria in lysostaphin-coated Angiocath catheters; format: cell-based
Method: Two Angiocath catheters (Becton Dickinson) were incubated with 200 PI of a 100 μg/mL solution of lysostaphin, while two others were incubated in PBS. The catheters were allowed to incubate overnight at 4° C. The following morning the catheters were washed with 50 ml PBS using a pump with a flow rate of 1.5 ml/minute. Once the catheters were washed, S. aureus SA5 was diluted in PBS to a percent transmittance of 40. A 1:10,000 dilution of this solution was made, and 100 μl was added to each catheter. The catheters were allowed to incubate for two hours at 37° C. Following incubation, the catheter effluent was plated onto blood agar plates and put in the incubator overnight at 37° C. The colonies on the plates were counted the following morning.
Coating of Catheters. The needles from the AngioCath catheters were removed and disposed. Using a 1 ml syringe, the catheters were coated with 200 μl of a 0.1 mg/ml solution of lysostaphin. The catheters were incubated for 1 hour, unless otherwise specified, at room temperature. The catheters were then washed with 50 ml of phosphate buffered saline using a peristaltic pump with a flow rate of 1.5 ml/minute. The catheters were then inoculated with 120 μl of a ˜5×10^4 CFU/ml solution of bacteria (diluted in TSB) and incubated for 2 hours at 37° C. The catheter effluent was then streaked onto a blood agar plate and incubated overnight at 37° C.

SA5 = test: Long-term leaching of lysostaphin from coated catheters; format: cell-based, S. aureus
Method: Long-term Leaching of Lysostaphin. Ten lysostaphin-coated catheters (10 mg/ml coating concentration) were incubated with PBS for 2 hours at 37° C. The catheters were then washed and two of the ten lysostaphin coated catheters were incubated with 200 μl of a 5×10^4 CFU/ml solution of SA5 for 2 hours at 37° C. The effluent was streaked on to blood agar plates and incubated at 37° C. overnight. The rest of the catheters were incubated with fresh PBS and left at 37° C. overnight. The following day, all eight catheters were washed out and two of the catheters were incubated with bacteria as above. The other six catheters were again incubated with fresh PBS and left at 37° C. overnight. This procedure was repeated everyday for four days.

S. aureus [2] = test: Lysostaphin activity on catheters in presence of serum proteins; format: cell-based
S. aureus [3] = test: Pre-treatment of catheterized mice with lysostaphin before S. aureus challenge; format: in vivo; details: for CFUs catheter / CFUs heart / CFUs liver: rinsed; for Animals infected: rinsed after 22 hours, 10^4 S. aureus, 4 days
Method: Jugular vein catheterized mice were pretreated with one or two doses of lysostaphin via catheter prior to being challenged with S. aureus as in Example 4. The mice received either one dose of lysostaphin (40 mg/kg) 24 hours pre-challenge or two doses of lysostaphin (40 mg/kg) 24 hours and 2 hours pre-challenge. Lysostaphin solutions were left in the catheters during challenge. Control mice received standard Phosphate Buffered Saline (PBS). The mice were sacrificed four days post-challenge.
In the above example, the lysostaphin solution was left in the catheters at the time of bacterial challenge, so it could be argued that this lysostaphin in solution was protecting the catheters from S. aureus infection. In order to perform a more rigorous experiment, Catheterized mice were instilled with a single dose of 40 mg/kg lysostaphin in 200 ul PBS through the catheter. One group also received a subsequent 50 ul of lock solution containing the same concentration of lysostaphin as the pre-instillation dose. Twenty two hours later, the catheters of all of these mice were rinsed thoroughly with PBS. Two hours post-rinsing, the animals were challenged with 10^4 S. aureus. The animals were sacrificed 4 days post S. aureus challenge and the catheters and organs processed for bacteria.

[4] = test system: biofilms of S. aureus SA113; test: Kinetic effect on established biofilms: absorbance at 650 nm and safranin staining; format: cell-based; details: for absorbance of biofilms at 650 nM: 6.25 μg/ml in PBS
Method: Oxacillin and vancomycin have often been used in antibiotic susceptibility studies of S. aureus biofilms. […] Twenty four-hour biofilms in polystyrene 96-well tissue culture plates were treated with serial dilutions of lysostaphin, oxacillin, and vancomycin (FIG. 7).
In order to examine the kinetic effect of lysostaphin, oxacillin and vancomycin on biofilms, the absorbance of established biofilms in a 96-well tissue culture plate was measured over time (0-3 hrs and 24 hrs). Tissue culture wells containing biofilms of S. aureus SA113 were incubated with serial dilutions of lysostaphin ([…]), oxacillin ([…]), or vancomycin ([…]) for 24 hours, and the absorbance at 650 nm was monitored every 20 minutes for the first 3 hours and then again at 24 hours. The absorbance of the lysostaphin-treated biofilms dropped from approximately 0.35 at time zero to 0.125 after 3 hours of treatment and dropped to near base line (0.04) by 24 hrs when treated with a dose of lysostaphin of 6.25 μg/ml in PBS (FIG. 7). […] Since antimicrobials like oxacillin or vancomycin are effective against actively metabolizing bacteria, a similar experiment was conducted but the biofilms were incubated with the three anti-microbials in bacterial media (TSB). Very similar results were also found when the assay was conducted in TSB rather than PBS.
The capacity of the three agents to disrupt S. aureus biofilms in polystyrene wells can be visualized by comparing the staining intensity of treated wells versus control (buffer-treated) wells.

[5] = 40 mg/kg i.c., no lock, results from the one infected animal

In the case of lysostaphin, the “intact bacteria on surface after treatment (microscopic examination)” value (S. epidermidis biofilms; three hours (data not shown)) is reported as “no intact bacteria left”, the “disruption of S. epidermidis biofilms (safranin)” value (S. epidermidis biofilms; three hours, strains Hay, SE1175, ATCC 35984) is reported as “disrupted the biofilms of all three strains” and the CFU (S. aureus [1]; Angiocath, coating 100 μg/ml overnight 4° C., SA5 two hours 37° C.) is reported as 0 CFU. The “CFU (n = 2)” value (S. aureus [1]; Table 13, AngioCath, coating concentration 0.1 mg/ml) was 0 CFU, the “CFU (n = 2)” value (S. aureus [1]; catheter coating 0.1 mg/ml, MRSA (MBT5040)) was 1 CFU and the “CFU (n = 2)” value (S. aureus [1]; catheter coating 0.1 mg/ml, SA5) was 1 CFU. For the same substance, the “CFU (n = 2)” value (S. aureus [1]; catheter coating 0.1 mg/ml, SA8) was 0 CFU, the “reduction of bacterial counts” value (S. aureus [1]; catheters coated 5 minutes with 0.1 mg/ml) was 98.7% and the “reduction of bacterial counts” value (S. aureus [1]; catheters coated 10 minutes with 0.1 mg/ml) was 99.4%. The “reduction of bacterial counts” value (S. aureus [1]; catheters coated 15 minutes with 0.1 mg/ml) was “completely cleared”, the “clearing of bacteria from coated catheters” value (S. aureus [1]; catheters incubated with SA8) was “completely cleared” and the “CFU recovered from the catheters, on average” value (S. aureus [1]; coated catheters incubated with MRSA (MBT5040)) was 1 CFU. The “clearing of bacteria from coated catheters” value (S. aureus [1]; vs 493 CFU's from control catheters) was “completely cleared of bacteria”, the “log reduction in bacteria recovered vs uncoated catheters” value (SA5; 10 mg/ml coated catheters, two-hour incubation with PBS) was 2.8 log and the “log reduction in bacterial counts” value (SA5; PBS incubation 24 hours) was 1.8 log. The “log reduction in bacterial counts” value (SA5; PBS incubation 48 hours) was 1.5 log, the “log reduction in bacterial counts” value (SA5; PBS incubation 72 hours) was 0.7 log and the “log reduction in bacterial counts” value (SA5; PBS incubation 96 hours) was 0.3 log. For the same substance, the “reduction in bacterial counts” value (S. aureus [2]; 0.1 mg/ml coated catheters incubated with human serum 24 hours) was 99%, the clearing of bacteria (S. aureus [2]; 10 and 1 mg/ml coated catheters incubated with human serum) was “completely cleared the bacteria” and the CFUs catheter (S. aureus [3]; 40 mg/kg i.c. and lock) was 0 CFUs. For the same substance, the CFUs heart (S. aureus [3]; 40 mg/kg i.c. and lock) was 0 CFUs, the CFUs liver (S. aureus [3]; 40 mg/kg i.c. and lock) was 0 CFUs and the Animals infected (S. aureus [3]; 40 mg/kg i.c. and lock) was 0/4. The CFUs catheter (S. aureus [3]; 40 mg/kg i.c., no lock) was 0 CFUs, the Animals infected (S. aureus [3]; 40 mg/kg i.c., no lock) was 1/4 and the CFUs heart (S. aureus [3]; [5]) was “(287)^a CFUs”. The CFUs liver (S. aureus [3]; [5]) was “(341)^a CFUs”, the “infection status of pretreated mice” value (S. aureus [3]; 40 mg/kg via catheter 24 hours or 24 hours and 2 hours pre-challenge, solution left in catheters, four days post-challenge) was “All eight treated mice were S. aureus free” and the “protection of catheters from formation of S. aureus biofilms” value (S. aureus [3]; single dose of 40 mg/kg pre-instilled, excess rinsed out) was “will protect the catheters from formation of S. aureus biofilms”. For the same substance, the “absorbance of biofilms at 650 nM” value ([4]; 24 hrs) was ~0.04, the “absorbance of biofilms at 650 nM” value ([4]; after 3 hours) was 0.125 and the “absorbance of biofilms at 650 nM” value ([4]; time zero) was “approximately 0.35”. The “lowest concentration that cleared biofilms (safranin)” value ([4]; in PBS, 24 hours) was 0.8 µg/mL, the “effect on absorbance of biofilms” value ([4]; in TSB, 24 hours (data not shown)) was “reduced the absorbance of biofilms to near background” and the “effect on absorbance of S. aureus biofilms over time (FIG. 7 legend)” value ([4]; lysostaphin 6.25 cg/ml, vancomycin 800 cg/ml, oxacillin 400 cg/ml) was “immediate and continuous drop in the absorbance”.
